Data: US20080145858A1, “DETECTION AND IDENTIFICATION OF TOXICANTS BY MEASUREMENT OF GENE […]” (priority 2003, published 2008)

Test system: Xenopus laevis embryos (stage 8 and stage 15)
Assay: Verification of microarray analysis by RT-PCR with biotinylated primers
Type: in vivo
Conditions: for expression of genes of ESTs PBX0135A08 and PBX013409: microarray and RT-PCR in agreement
From the text: Up-regulation of the clone Nos. PBX0135A08 and PBX0134E09 (underlined and shaded genes in Table 1, Panel A) were verified by RT-PCR of the genes. […] The DNA product obtained by RT-PCR using biotinylated primers of clone No. PBX0135A08 was separated by 1% agarose gel electophoresis and visualized by ethidium bromide staining (FIG. 3, Panel A). The DNA fragments were blotted to a nitrocellulose membrane and visualized by a streptavidin-horseradish peroxidase/ECL system (FIG. 3, Panel B). Though a single band for each reaction was visible in the ethidium bromide stained gel (FIG. 3, Panel A), multiple bands were obtained by the ECL system (FIG. 3, Panel B). When the biotin-labeled DNA in the gel was depurinated and denaturated by treatment with 0.25 M HCl followed by 1.5 M NaCl/0.56 N NaOH, the major 380 bp species were efficiently transferred and similar pattern to that observed using the ECL method was obtained (FIG. 3, Panel C). The effect was also observed with RT-PCR of clone No. PBX0134E09. mRNA levels of clones No. PBX0135A08 and No. PBX013409 increased after PMA treatment at stage 8 (Table 2).
In FIG. 3 the DNA products were obtained from 2 independent RT-PCR reactions using mRNA from untreated blastula stage 8 embryos (lanes 1 and 2), PMA-treated cleavage stage 8 embryos (lanes 3 and 4), untreated neurula stage 15 embryos (lanes 5 and 6), and PMA-treated neurula stage 15 embryos (lane 7 and 8). The 380 bp biotin-labeled DNA fragments were separated by gel electrophoresis on 1% agarose gel without further treatment (panel A and B) or following depurination and denaturation (panel C). In panel A, the DNA was detected by ultraviolet light following ethidium bromide staining. In panels B and C, the DNA was transferred to nitrocellulose membrane and detected by streptavidin-horseradish peroxidase ECL.

SMILES: CCCCCCCCCCCCCC(=O)O[C@@H]1[C@@H](C)[C@@]2(O)[C@@H](C=C(CO)C[C@]3(O)C(=O)C(C)=C[C@@H]23)[C@@H]2C(C)(C)[C@]12OC(C)=O [PMA, phorbol 12-myristate 12-acetate]
- expression of genes of ESTs PBX0135A08 and PBX013409 (cleavage embryos, stage 8): highly up-regulated
- expression of genes of ESTs PBX0135A08 and PBX013409 (embryos undergoing neurulation, stage 15): unaffected
- % increase of mRNA expression by RT-PCR (gene PBX0135A08, Stage 8): 260% of control
- % increase of mRNA expression by RT-PCR (gene PBX0135A08, Stage 15): no change
- % increase of mRNA expression by RT-PCR (gene PBX013409, Stage 8, not detected in control but strong band after PMA treatment): highly induced^b
- % increase of mRNA expression by RT-PCR (gene PBX013409, Stage 15): no change
